Assay [1] deals with Arachidonic Acid-Induced Rat Paw Edema. As to the kind of experiment: Arachidonic acid-induced rat paw swelling. Format: in vivo, Lewis rats. Conditions: 100 mg/kg, read at 2 hours. An excerpt: (§1) In the following Examples where mice were used, they were male Balb/c mice (20-28 g), and where rats were used, they were male Lewis rats (180-210 g). All mice and rats were obtained from Charles River Breeding Laboratories, Kingston, N.Y. Within a single experiment, mice and rats were sex and age matched.
(§2) The compounds of Formula (IA) were used either as the free base or in the appropriate salt form. Levamisole was used as the hydrochloride salt. The compounds were homogenized in 0.5% tragacanth. Compounds were administered by gavage at the indicated dose in a final volume of 10 ml/kg. Nordihydroguaiaretic acid (NDGA) was solubilized in dimethylacetamide and diluted with olive oil for subcutaneous administration.

In assay [2] the test system is Arachidonic Acid-Induced Inflammation of the Mouse Ear. The experiment in a line: Arachidonic acid-induced mouse ear inflammation. Format: in vivo, Balb/c mice.
Excerpt: as §1, §2
Arachidonic acid in acetone (2 mg/20 ul) was applied to the inner surface of the left ear. The thickness of both ears was then measured with a dial micrometer one hour after treatment, and the data were expressed as the change in thickness (10⁻³ cm) between treated and untreated ears.
Test compounds were given orally in 0.5% tragacanth at the times indicated in the text prior to the topical application of arachidonic acid.
Parenteral administration of compound was accomplished by subcutaneous injection of solution as indicated.

The target in another assay is T1, 5-LO (Rattus norvegicus, UniProt P12527).
T1 construct: The activities of these enzymes in extracts of RBL-1 cells were assayed; host or cells: RBL-1 cells, disrupted by nitrogen cavitation; 10,000 x g or 100,000 x g supernatant
T1 sequence (P12527 1-673): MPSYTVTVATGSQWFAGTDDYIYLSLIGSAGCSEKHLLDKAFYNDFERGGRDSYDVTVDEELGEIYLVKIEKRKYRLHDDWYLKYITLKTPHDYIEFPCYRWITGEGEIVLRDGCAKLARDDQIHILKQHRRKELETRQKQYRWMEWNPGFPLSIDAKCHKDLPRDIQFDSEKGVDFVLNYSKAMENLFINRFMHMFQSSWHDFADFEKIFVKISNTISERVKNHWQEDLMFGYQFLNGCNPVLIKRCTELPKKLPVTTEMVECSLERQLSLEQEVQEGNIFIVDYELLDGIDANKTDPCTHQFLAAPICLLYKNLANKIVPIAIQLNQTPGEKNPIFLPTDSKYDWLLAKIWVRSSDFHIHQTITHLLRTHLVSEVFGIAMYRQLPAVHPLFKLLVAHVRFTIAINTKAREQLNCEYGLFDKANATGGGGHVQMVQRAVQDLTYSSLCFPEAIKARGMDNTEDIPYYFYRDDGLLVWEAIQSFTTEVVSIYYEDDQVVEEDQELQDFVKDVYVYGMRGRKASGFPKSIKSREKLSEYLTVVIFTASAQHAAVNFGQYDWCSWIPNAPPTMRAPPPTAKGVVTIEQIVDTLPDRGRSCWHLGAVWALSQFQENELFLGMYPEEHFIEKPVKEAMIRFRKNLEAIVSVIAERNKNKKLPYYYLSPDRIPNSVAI
As to the kind of experiment: di-HETE production by RBL-1 high speed supernatant. In kind it is biochemical. Summed up:
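RBL-1 cell 100,000 x g supernatant was preincubated 10 min with compound, then given CaCl₂ and 25 uM [¹⁴C]arachidonic acid for 3 min at 37°C. 5-HETE and di-HETE were quantified by TLC radioscanning. A variant re-centrifuged the supernatant and incubated 5 min at 5°C with 2 mM CaCl₂.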

In another assay the test system is Cyclooxygenase. The experiment in a line: Cyclooxygenase activity (PGD2) in 10,000 x g supernatant of RBL-1 cells. In kind it is biochemical. Conditions: text b252; RBL-1 cell extracts; read-out: IC₅₀ PGD₂ production.

Molecules are shown by their SMILES. pIC50: −log10 of the molar value. Marks after values point to notes of the source that are not given here.

Experimental findings from patent publication EP0231622B1, “Inhibition of the 5-lipoxygenase pathway” (priority 1985, dated 1987) are described below.

Experimental for Cyclooxygenase: For in vitro experiments, compounds were dissolved at appropriate concentrations in ethanol or DMSO (dimethylsulfoxide) (final concentration <1.0%) and then diluted to final concentrations using the buffers indicated in the text.
Harvested cells were washed with 50 mM sodium phosphate buffer, pH 7.0, containing 1 mM EDTA and 0.1% gelatin, resuspended in fresh buffer (5 x 10⁷ cells/ml) and disrupted by nitrogen cavitation using the Parr bomb at 750 psi for 10 min. The broken cell extract was then centrifuged at 10,000 x g for 20 minutes and the supernatant centrifuged at 100,000 x g for 60 minutes. Aliquots (0.25 mls) of the supernatant were preincubated with or without drugs for 10 min, after which 10 ul CaCl₂ (50 mM) was added and the reaction was initiated with 2.5 ul of 2.5 mM arachidonic acid-1-¹⁴C (final concentration was 25 mM; specific activity 20,000 dpm/nmole). After incubation for 3 min at 37°C, the reaction was terminated by addition of 2 volumes (0.5 ml) ice cold acetone and the sample was allowed to deproteinize on ice for 10 min prior to centrifugation at 1,000 x g for 10 min. The deproteinized supernatant was adjusted to pH 3.5 with 2N formic acid and extracted with 2 volumes of ice cold ethyl acetate. […] Arachidonic acid, 5-HETE, di-HETE and PGD₂ were quantified with a Berthold LB 2832 autoscanner.

With `Fc1ccc(-c2nc3n(c2-c2ccncc2)CCS3)cc1` [Compound 1, 5-(4-pyridyl)-6-(4-fluorophenyl)-2,3-dihydroimidazo[2,1-b]thiazole], the “Change in Paw Volume” value in assay [1] (one hour before arachidonic acid) turned out to be 0.06 ± 0.05 mL. The “(% Inhibition) of change in paw volume” value in assay [1] came to 78%. The ED50 in assay [2] (Mus musculus, po, 1 hour after 2 mg of arachidonic acid to the ear, read-out: ED₅₀ (inhibition of the edematous response of the ear)) stood at 19.5 mg/kg. Further, in assay [2] (Table 7, 50 mg/kg, p.o.), the “% Change” value is -67^b %. Further, in assay [2] (Table 7, 50 mg/kg, p.o., 15 minutes before arachidonic acid), the “Increase in Ear Thickness at 1 Hour (x 10⁻³ cm)” value came to 10.0 ± 1.5 x 10⁻³ cm. Moreover, the “Di-HETE (nM/ml)” value on 5-LO (1 uM) came to 1.56 ± 0.06 nM/ml; on 5-LO (3.3 uM), 1.34 ± 0.12 nM/ml; at 5-LO (10 uM), 0.88 ± 0.21 nM/ml; on 5-LO (33 uM) it was 0.40 ± 0.08 nM/ml; at 5-LO (100 uM), 0.03 ± 0.04 nM/ml. Besides, on 5-LO (1 uM, read-out: % Control (Di-HETE)), the inhibition at 1 µM was 19.7%. The inhibition at 3.3 µM on 5-LO (3.3 uM, read-out: % Control (Di-HETE)) came out at 30.9%. Moreover, on 5-LO (10 uM, read-out: % Control (Di-HETE)), the inhibition at 10 µM was determined as 54.8%. The inhibition at 33 µM on 5-LO (33 uM, read-out: % Control (Di-HETE)) came out at 79.6%. Further, the inhibition at 100 µM at 5-LO (100 uM, read-out: % Control (Di-HETE)) was 98.3%. The pIC50 at 5-LO (soluble extract of RBL-1 cells containing only lipoxygenase activity, read-out: IC₅₀ eicosanoid formation (di-HETE production)) is 5.12; with Cyclooxygenase, 4.00.
